Assay results: article PMC7180948, “New Insights into 4-Anilinoquinazolines as Inhibitors of Cardiac Troponin I–Interacting Kinase (TNNi3K)” (Molecules, 2020)

Assays:
Experiment in all cases: biochemical
Design in all cases: KINOMEscan competition binding panel (Eurofins DiscoverX), single concentration, % inhibition
Details in all cases: read-out: 7 at 1 µM % inhibition
[1] = target: FGFR3(G697C) (Homo sapiens, UniProt P22607, G697C)
Outline: (§1)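 Binding was profiled in the KINOMEscan panel of over 400 human kinases, with each compound tested at a single concentration of 1 µM to map selectivity.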

[2] = target: CAMK2A (Homo sapiens, UniProt Q9UQM7)
Outline: as §1

[3] = target: RET(V804M) (Homo sapiens, UniProt P07949, V804M)
Outline: as §1

[4] = target: T1, LOK (Homo sapiens, UniProt O94804)
T1 construct: gene STK10
Outline: as §1

[5] = target: FLT3(ITD,F691L) (Homo sapiens, UniProt P36888, F691L/ITD)
Outline: as §1

[6] = target: NEK7 (Homo sapiens, UniProt Q8TDX7)
Outline: as §1

[7] = target: KIT-autoinhibited (Homo sapiens, UniProt P10721)
Outline: as §1

[8] = target: TLK2 (Homo sapiens, UniProt Q86UE8)
Outline: as §1

[9] = target: MYLK2 (Homo sapiens, UniProt Q9H1R3)
Outline: as §1

[10] = target: EPHB6 (Homo sapiens, UniProt O15197)
Outline: as §1

[11] = target: SGK2 (Homo sapiens, UniProt Q9HBY8)
Outline: as §1

[12] = target: T2, SgK110 (Homo sapiens, UniProt P0C264)
T2 construct: gene SBK3
Outline: as §1

[13] = target: T3, YSK4 (Homo sapiens, UniProt Q56UN5)
T3 construct: gene MAP3K19
Outline: as §1

[14] = target: TEC (Homo sapiens, UniProt P42680)
Outline: as §1

[15] = target: PRKG1 (Homo sapiens, UniProt Q13976)
Outline: as §1

[16] = target: T4, JAK1(JH1domain-catalytic) (Homo sapiens, UniProt P23458)
T4 construct: JH1domain-catalytic
Outline: as §1

[17] = target: T5, RSK1(Kin.Dom.2-C-terminal) (Homo sapiens, UniProt Q15418)
T5 construct: gene RPS6KA1; Kin.Dom.2-C-terminal
Outline: as §1

[18] = target: TYRO3 (Homo sapiens, UniProt Q06418)
Outline: as §1

[19] = target: CSF1R (Homo sapiens, UniProt P07333)
Outline: as §1

[20] = target: T6, ABL1(E255K)-phosphorylated (Homo sapiens, UniProt P00519, E255K)
T6 construct: phosphorylated
Outline: as §1

[21] = target: CAMKK1 (Homo sapiens, UniProt Q8N5S9)
Outline: as §1

[22] = target: T7, HPK1 (Homo sapiens, UniProt Q92918)
T7 construct: gene MAP4K1
Outline: as §1

[23] = target: DMPK (Homo sapiens, UniProt Q09013)
Outline: as §1

[24] = target: T8, RPS6KA5(Kin.Dom.1-N-terminal) (Homo sapiens, UniProt O75582)
T8 construct: Kin.Dom.1-N-terminal
Outline: as §1

T1 sequence (O94804 whole entry): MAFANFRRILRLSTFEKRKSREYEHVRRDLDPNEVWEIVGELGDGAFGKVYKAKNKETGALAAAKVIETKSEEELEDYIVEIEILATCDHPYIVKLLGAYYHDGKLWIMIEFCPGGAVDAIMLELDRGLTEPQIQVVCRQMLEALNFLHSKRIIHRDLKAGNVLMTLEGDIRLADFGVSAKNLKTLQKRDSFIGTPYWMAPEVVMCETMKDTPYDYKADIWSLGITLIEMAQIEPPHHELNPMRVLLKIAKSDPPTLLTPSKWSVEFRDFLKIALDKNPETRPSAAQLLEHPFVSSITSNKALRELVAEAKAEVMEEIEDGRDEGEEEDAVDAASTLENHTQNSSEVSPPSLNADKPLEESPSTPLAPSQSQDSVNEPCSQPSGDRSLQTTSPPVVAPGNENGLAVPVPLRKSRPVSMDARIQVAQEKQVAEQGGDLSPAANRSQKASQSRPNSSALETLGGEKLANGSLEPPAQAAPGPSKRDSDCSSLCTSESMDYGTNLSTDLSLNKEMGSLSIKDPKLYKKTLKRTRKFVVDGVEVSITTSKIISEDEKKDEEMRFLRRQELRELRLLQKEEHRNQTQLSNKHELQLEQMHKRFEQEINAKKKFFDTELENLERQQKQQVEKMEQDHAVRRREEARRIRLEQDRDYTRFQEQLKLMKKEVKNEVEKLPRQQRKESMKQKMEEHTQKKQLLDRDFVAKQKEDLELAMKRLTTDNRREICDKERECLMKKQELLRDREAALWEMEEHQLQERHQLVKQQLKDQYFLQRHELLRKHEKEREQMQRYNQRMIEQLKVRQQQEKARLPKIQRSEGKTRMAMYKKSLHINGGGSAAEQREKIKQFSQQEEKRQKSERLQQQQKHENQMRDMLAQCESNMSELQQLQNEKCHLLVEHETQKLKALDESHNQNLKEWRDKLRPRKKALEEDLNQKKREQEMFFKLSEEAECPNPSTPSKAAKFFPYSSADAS
KIT-autoinhibited, sequence (P10721 whole entry): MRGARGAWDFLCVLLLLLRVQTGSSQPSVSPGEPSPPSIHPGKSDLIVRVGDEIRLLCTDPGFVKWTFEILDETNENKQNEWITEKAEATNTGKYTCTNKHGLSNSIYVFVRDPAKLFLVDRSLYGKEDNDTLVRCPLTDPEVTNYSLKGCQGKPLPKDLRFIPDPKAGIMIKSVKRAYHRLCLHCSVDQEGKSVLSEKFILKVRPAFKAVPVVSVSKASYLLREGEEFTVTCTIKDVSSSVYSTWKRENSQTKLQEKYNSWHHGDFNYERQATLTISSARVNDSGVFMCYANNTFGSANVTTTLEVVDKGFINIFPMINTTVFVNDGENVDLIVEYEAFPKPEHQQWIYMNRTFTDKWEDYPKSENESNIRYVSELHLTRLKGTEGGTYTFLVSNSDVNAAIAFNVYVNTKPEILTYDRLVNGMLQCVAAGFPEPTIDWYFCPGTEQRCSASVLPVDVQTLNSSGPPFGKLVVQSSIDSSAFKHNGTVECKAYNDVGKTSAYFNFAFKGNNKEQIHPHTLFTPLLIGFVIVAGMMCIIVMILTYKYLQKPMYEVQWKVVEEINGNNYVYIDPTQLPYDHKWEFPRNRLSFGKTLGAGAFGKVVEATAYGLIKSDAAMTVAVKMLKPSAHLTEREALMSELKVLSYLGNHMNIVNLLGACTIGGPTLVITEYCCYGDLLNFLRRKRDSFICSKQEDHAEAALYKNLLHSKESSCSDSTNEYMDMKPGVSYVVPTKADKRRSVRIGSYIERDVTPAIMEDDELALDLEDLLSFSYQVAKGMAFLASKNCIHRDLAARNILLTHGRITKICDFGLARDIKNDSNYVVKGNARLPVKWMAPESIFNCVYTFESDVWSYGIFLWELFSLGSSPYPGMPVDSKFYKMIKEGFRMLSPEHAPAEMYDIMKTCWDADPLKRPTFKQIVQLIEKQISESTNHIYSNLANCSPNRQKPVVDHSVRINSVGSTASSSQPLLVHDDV
T4 sequence (P23458 whole entry): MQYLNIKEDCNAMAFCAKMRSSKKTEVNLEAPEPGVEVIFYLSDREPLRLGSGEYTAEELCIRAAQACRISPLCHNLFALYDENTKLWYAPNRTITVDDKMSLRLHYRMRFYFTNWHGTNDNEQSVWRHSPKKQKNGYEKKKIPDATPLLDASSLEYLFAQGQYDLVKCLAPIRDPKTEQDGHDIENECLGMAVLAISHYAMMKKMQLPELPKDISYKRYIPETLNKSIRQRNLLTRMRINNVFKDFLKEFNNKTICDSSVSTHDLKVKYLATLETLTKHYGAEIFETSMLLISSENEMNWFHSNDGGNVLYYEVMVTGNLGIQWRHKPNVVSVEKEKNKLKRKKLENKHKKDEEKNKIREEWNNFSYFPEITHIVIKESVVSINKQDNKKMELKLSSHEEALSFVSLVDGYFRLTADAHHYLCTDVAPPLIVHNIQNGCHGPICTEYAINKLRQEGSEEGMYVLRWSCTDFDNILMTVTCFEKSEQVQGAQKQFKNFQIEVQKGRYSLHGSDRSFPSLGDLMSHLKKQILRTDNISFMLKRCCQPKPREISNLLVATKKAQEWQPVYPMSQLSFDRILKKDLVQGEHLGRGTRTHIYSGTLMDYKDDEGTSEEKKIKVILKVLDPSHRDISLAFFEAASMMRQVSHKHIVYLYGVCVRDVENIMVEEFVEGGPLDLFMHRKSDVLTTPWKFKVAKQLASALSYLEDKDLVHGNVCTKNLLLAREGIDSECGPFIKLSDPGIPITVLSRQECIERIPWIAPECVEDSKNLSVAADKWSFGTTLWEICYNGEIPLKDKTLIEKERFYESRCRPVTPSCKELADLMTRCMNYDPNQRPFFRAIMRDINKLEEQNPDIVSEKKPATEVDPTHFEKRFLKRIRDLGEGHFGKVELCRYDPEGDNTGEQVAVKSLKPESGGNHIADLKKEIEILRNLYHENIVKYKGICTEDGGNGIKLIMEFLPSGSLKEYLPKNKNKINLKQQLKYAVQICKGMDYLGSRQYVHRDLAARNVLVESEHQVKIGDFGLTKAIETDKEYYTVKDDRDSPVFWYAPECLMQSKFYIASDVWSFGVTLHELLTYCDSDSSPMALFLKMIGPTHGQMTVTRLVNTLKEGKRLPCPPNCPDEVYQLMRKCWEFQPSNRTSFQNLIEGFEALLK
T7 sequence (Q92918 whole entry): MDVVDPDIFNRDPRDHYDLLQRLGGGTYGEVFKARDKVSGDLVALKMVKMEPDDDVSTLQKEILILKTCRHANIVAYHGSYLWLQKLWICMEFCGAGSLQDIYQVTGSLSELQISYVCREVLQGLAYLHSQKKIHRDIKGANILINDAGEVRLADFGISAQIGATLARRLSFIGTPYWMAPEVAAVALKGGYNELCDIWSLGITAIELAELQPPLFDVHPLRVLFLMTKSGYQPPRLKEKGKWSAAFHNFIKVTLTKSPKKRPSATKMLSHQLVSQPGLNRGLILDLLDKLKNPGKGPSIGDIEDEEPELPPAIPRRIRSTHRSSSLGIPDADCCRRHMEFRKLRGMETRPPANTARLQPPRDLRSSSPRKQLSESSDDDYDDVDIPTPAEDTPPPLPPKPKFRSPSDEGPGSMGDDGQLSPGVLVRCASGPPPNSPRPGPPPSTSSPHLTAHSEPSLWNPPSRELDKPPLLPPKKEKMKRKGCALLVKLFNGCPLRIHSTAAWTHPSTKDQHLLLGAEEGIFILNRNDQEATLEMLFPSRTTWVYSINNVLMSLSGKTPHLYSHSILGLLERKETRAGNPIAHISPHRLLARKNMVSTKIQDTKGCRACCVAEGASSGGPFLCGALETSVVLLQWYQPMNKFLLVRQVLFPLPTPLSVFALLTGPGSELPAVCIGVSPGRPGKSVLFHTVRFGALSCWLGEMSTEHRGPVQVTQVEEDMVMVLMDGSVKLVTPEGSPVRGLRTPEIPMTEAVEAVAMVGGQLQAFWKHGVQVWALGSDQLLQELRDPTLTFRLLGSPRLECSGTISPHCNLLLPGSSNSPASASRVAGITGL
SGK2, sequence (Q9HBY8 whole entry): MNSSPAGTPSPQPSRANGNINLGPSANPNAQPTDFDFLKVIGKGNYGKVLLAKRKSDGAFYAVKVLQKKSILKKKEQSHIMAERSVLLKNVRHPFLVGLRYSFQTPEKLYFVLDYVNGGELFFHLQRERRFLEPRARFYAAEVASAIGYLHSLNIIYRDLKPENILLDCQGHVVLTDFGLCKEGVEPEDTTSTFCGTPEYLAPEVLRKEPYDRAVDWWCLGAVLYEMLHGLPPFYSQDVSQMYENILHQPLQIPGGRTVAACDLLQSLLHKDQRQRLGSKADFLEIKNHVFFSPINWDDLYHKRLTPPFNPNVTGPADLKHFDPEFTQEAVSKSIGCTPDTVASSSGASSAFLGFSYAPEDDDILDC
CAMK2A, sequence (Q9UQM7 whole entry): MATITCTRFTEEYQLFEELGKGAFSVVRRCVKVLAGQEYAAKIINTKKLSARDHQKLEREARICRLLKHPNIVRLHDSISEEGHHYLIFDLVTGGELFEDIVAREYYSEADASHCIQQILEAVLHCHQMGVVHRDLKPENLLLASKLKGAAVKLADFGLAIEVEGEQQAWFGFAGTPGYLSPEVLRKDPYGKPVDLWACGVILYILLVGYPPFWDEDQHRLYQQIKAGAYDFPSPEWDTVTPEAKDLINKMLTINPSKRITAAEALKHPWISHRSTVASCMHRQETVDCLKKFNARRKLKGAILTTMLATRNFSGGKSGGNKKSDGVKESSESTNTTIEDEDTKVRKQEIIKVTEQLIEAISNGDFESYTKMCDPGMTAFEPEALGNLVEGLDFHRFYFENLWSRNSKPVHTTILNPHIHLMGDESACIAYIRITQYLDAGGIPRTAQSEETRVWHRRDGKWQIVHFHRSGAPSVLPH
NEK7, sequence (Q8TDX7 whole entry): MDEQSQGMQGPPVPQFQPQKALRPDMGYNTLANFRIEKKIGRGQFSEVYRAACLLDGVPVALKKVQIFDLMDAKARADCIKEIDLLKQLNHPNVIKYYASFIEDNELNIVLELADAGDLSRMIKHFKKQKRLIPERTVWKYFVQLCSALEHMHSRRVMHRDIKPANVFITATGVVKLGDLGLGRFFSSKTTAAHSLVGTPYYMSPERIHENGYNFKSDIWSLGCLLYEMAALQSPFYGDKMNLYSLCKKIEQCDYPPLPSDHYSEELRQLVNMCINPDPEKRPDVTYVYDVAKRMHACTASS

With `CNS(=O)(=O)c1ccc(N(C)C)c(Nc2ncnc3cc(OC)c(OC)cc23)c1` [compound 7, 3-((6,7-dimethoxyquinazolin-4-yl)amino)-4-(dimethylamino)-N-methylbenzenesulfonamide] the inhibition at 1 µM [1] was 0%, the inhibition at 1 µM [2] was 9% and the inhibition at 1 µM [3] was 0%. The inhibition at 1 µM [4] was 44%, the inhibition at 1 µM [5] was 22% and the inhibition at 1 µM [6] was 0%. The inhibition at 1 µM [7] was 22%, the inhibition at 1 µM [8] was 0% and the inhibition at 1 µM [9] was 0%. For the same molecule, the inhibition at 1 µM [10] was 15%, the inhibition at 1 µM [11] was 0% and the inhibition at 1 µM [12] was 0%. For the same molecule, the inhibition at 1 µM [13] was 72%, the inhibition at 1 µM [14] was 0% and the inhibition at 1 µM [15] was 0%. The inhibition at 1 µM [16] was 0%, the inhibition at 1 µM [17] was 0% and the inhibition at 1 µM [18] was 0%. It also gave an inhibition at 1 µM [19] of 22%, an inhibition at 1 µM [20] of 34% and an inhibition at 1 µM [21] of 5%. The inhibition at 1 µM [22] was 0%, the inhibition at 1 µM [23] was 0% and the inhibition at 1 µM [24] was 7%.
